Assay results: patent US20250127774A1, “COMPOUNDS FOR LABELLING NUCLEIC ACID AND USES THEREOF” (THE ROYAL INSTITUTION FOR THE ADVANCEMENT OF …, priority 2022, published 2025)
Counter-ions that a name gives are not always drawn. Like-named read-outs stand apart in the source and are kept apart here.

Columns and labels:
[1] = Photophysical properties of AO-495-tet-py before and after reaction with 5-norbornene-2 methanol; type: physicochemical; settings: for φ: Rhodamine 6G standard; for λmax(Fluor.): excitation at 488 nm
Description: The absorbance and fluorescence intensity (excitation at 488 nm) of AO-495-TET-py in different solvents (water, PBS and acetonitrile) was measured in a quartz cuvette (light path 1 cm) using a SpectraMax M5 plate reader (Molecular Devices, Sunnyvale, CA, USA). For AO-495-tet-py, samples for photophysical characterization were prepared directly from stock solution (10 mM in DMSO) by gradient dilution. For reaction of AO-495-tet-py with 5-norbornene-2 methanol, 20 μL AO-495-tet-py stock solution (in DMSO) was mixed with 2 μL 5-norbornene-2 methanol (80× excess) in room temperature for 24 h to ensure full conversion. 3 μL of the reaction mixture was diluted in to the indicated solvent to make a […] solution for following photophysical characterization. Rhodamine 6G in ethanol was used as fluorescence standard (φ=0.94).

[2] = Photophysical measurements (quantum yield) of PINK and PINK-VdU-ox; type: physicochemical; settings: excitation 488 nm, Rhodamine 6G standard; PINK in aqueous and aprotic solvents, 6 depending on the solvent used
Description: PINK (4) undergoes a highly fluorogenic and regioselective IEDDA reaction with VdU (5) to give “PINK-VdU-ox” (6) as a single isomer in a 76% isolated yield after 7d at 60° C. (Scheme 1). The slow rate of this non-templated reaction (Kapp=0.01 M^−1 s^−1, FIG. 5) is due to the combination of an unstrained terminal alkene and unactivated tetrazine.^[49] Over the course of the reaction, a ˜100-fold increase in fluorescence was observed (FIG. 3, c). With a quantum yield (φF)<0.2%, PINK (4) is essentially non-fluorescent in both aqueous and aprotic solvents (FIG. 6).
Highly viscous solvents, including glycerol and polyethylene glycol (PEG 200) induced higher fluorescence of 6, likely by restricting bond rotation and thus suppressing formation of a non-emissive, twisted intramolecular charge transfer (TICT) state.^[50]
Photophysical Measurements. Stock solutions (1-10 mM) of investigated compounds were prepared in DMSO and stored at −20° C. DMSO concentrations were less than 1% after dilution into the respective solvent/aqueous buffer. Measurements were collected on a SpectraMax M5 plate reader (Molecular Devices, Sunnyvale, CA, USA) in 1 cm path-length quartz cuvettes. Quantum yields were obtained by excitation at 488 nm using Rhodamine 6G ((=0.94) in EtOH (n=1.3624) as a fluorescent standard.^[1] Quantum yields were calculated using the equation I: […]

[3] = tested on: Hela cells; assay: Pulse-chase labeling with EdU; type: cell-based; settings: 20 μM VdU 16 h, 1 μM PINK 4 h, 10 μM EdU 4 h
Description: To investigate the potential impact of VdU-PINK labeling on subsequent DNA synthesis, a pulse-chase experiment was performed with 5-ethynyl-2′-deoxyuridine (EdU) (FIG. 14, a). Hela cells were grown in cell media containing 20 μM VdU for 16 h, aspirated, treated with 1 μM PINK for 4 h, aspirated and treated with 10 μM EdU for 4 h. After fixation and DNA denaturation, cells were stained with AF488-azide (488 nm laser; emission 495-540 nm), and total cellular DNA was counterstained with Hoechst 33342 (405 nm laser; emission 410-480 nm). The “No VdU” cells were incubated with 1 μM PINK but not VdU. PINK+ and EdU+ “double positive” cells were observed as having co-localized nuclear staining. […] Therefore, VdU and PINK were used to track DNA synthesis and cellular division using live-cell, time-lapsed imaging. For optimal live-cell visualization, cells were incubated with 100 µM VdU for 23 h and subsequently labeled with 1 μM PINK for 4 h prior to imaging, allowing for the recording of full mitotic cycles over 2.5 hours (FIG. 14, b). Live cell images were acquired using a confocal microscope equipped with a stage-top incubator at 37° C. and at 5% CO2.
Pulse-Chase Labeling. In each well of a 24-well plate, one 10 mm diameter cover slide was placed. Hela cells were seeded at 1.2×10^5 cells per mL and allowed to settle overnight (22 h). […]

[4] = tested on: MV4-11 cells; assay: Resazurin combination toxicity assay; type: cell-based; settings: Homo sapiens
Description: (§1) From the single toxicity experiment, it was determined that the optimal subtoxic concentration of PINK to be used for the combination toxicity assays would be 1 μM. To test how effective the vinyl-nucleosides (VdU/VdA) in combination with PINK are at killing the cells compared to the vinyl-nucleosides alone, another resazurin reduction assay was carried out.
(§2) To determine if it is possible to treat the leukemia cells with the vinyl-nucleosides and PINK simultaneously, instead of adding them sequentially, another resazurin reduction assay using the same concentrations of each compound as in the previous combination experiment was carried out, where instead the vinyl-nucleosides and PINK were added on the same day instead of on two consecutive days.
(§3) Resazurin Combination toxicity assays. MV4-11, MOLM-13 and Jurkat cells were seeded in 96-well plates at a density of 20 000 cells/well, 25 000 cells/well and 30 000 cells/well, respectively, in triplicates. For the sequential addition, the cells were first treated with the nucleosides (VdU/VdA) diluted in fresh media in 1:4 serial dilutions (˜0.01% DMSO) at concentrations of 500-0 μM, and incubated overnight. 24h post nucleoside addition, the cells were treated with 1 μM PINK diluted in fresh media (˜1% DMSO), and incubated for 24-72h. The cells were treated with resazurin, incubated and measured, as described above. For the simultaneous addition, the cells were treated with nucleosides and PINK on the same day at the same concentrations as describes above, and incubated for 24-72h.

[5] = tested on: Jurkat cells; assay: Resazurin combination toxicity assay; type: cell-based; settings: Homo sapiens
Description: as §1, §2, §3

[6] = tested on: MOLM-13 cells; assay: Resazurin combination toxicity assay; type: cell-based, human; settings: variable VdU/VdA alone or with 1 μM PINK added 24 h post nucleoside addition, read-out: IC50 value (48 h) for sequential addition
Description: as §1, §3

[7] = tested on: MV4-11 cells; assay: Resazurin single toxicity assay; type: cell-based; settings: Homo sapiens, compound alone
Description: (§4) Resazurin assays were carried out to test the effectiveness of VdU, VdA and PINK alone in MV4-11 and Jurkat. The resazurin reduction assay is a colorimetric assay which allows to determine a cell's viability based on its metabolic activities.^26 When the cells are alive, the resazurin gets reduced by NADH into its resorufin form by cellular respiration, which is pink and highly fluorescent.^26 When the cells are dead or their metabolisms are impaired, the resazurin remains in its oxidized form, which is blue and has low fluorescence.^26 The cells can then be imaged using a spectrometer to determine how viable they are after each treatment.
(§5) Resazurin Single toxicity assay. MV4-11 and Jurkat cells were seeded in 96-well plates at a density of 20 000 cells/well, in triplicates. The cells were treated with each nucleoside (VdU/VdA) alone diluted in fresh media in 1:4 serial dilutions (˜0.01% DMSO) at concentrations of 1000-0 μM. The cells were treated with PINK alone diluted in fresh media in 1:2 serial dilutions (˜1% DMSO) at concentration of 100-0 μM. The cells were then incubated for 24 h and 72h. 10 μL of 870 μM resazurin was added per well, and incubated for 2-5 hours. After incubation, the fluorescence intensity at 590 nm (excitation=560 nm) was measured using a SpectraMax M5 plate reader.

[8] = tested on: Jurkat cells; assay: Resazurin single toxicity assay; type: cell-based; settings: Homo sapiens, compound alone
Description: as §4, §5

[9] = tested on: MOLM-13 cells; assay: Cell counting assay (Trypan Blue); type: cell-based, human; settings: MOLM-13, 5 μM nucleoside, 1 μM PINK
Description: To confirm the cytotoxicity results obtained from the resazurin assays, a cell counting assay was conducted using Trypan Blue. It is an azo dye allows to discriminate between viable cells and dead cells, since dead cells will take in the dye, while viable cells will remain white. 28 From the resazurin assays, and after some optimization based on cell sensitivity to the vinyl-nucleosides, it was determined that […] and 5 μM of vinyl-nucleosides alone and in combination with 1 μM of PINK were two interesting concentrations to explore in Jurkat, MV4-11, and MOLM-13 cells. Cells were incubated with 5 μM or 10 μM of each nucleoside overnight (Day 0), and 1 μM of PINK was added for the combinations and PINK alone 24h post nucleoside incubation (Day 1). The cells were counted every 24h.
Cell Counting Assay. Jurkat, MV4-11 and MOLM-13 cells were seeded in 12-well plates at a density of 500 000 cells/mL, 175 000 cells/mL and 375 000 cells/mL, respectively, in duplicates. The cells were incubated overnight in fresh media containing 10 μM (Jurkat) or 5 μM (MV4-11 and MOLM-13) of each nucleoside (˜0.01% DMSO). 24h post nucleoside addition, 1 μM of PINK (˜0.01% DMSO) were added to the respective wells and incubated for 24 h. The cells were counted using a cell counter (BIO RAD TC20) to determine the percentage of viable cells and the cell concentration. The cells were counted every 24h using Trypan Blue in a 1:1 ratio.

[10] = tested on: MV4-11 and Jurkat; assay: Resazurin single toxicity assay, summary over both cell lines; type: cell-based; settings: Homo sapiens, after 24 h and 72h, read-out: IC50 summarised over both cell lines
Description: as §4
Overall, VdU presented itself as a good candidate for the combination therapy with PINK due to its low toxicity in the two leukemia cell lines.
as §5

[11] = 48 h, variable VdU/VdA alone or with 1 μM PINK added on the same day, read-out: IC50 value (48 h) for simultaneous addition
[12] = variable VdU/VdA alone or with 1 μM PINK added 24 h post nucleoside addition, read-out: IC50 value (48 h) for sequential addition

For `CN(C)c1ccc2cc3ccc(N(C)C)cc3[n+](CCCc3nnc(-c4ccccn4)nn3)c2c1` [AO-495-tet-py, (10-(6-(pyridin-2-yl)-1,2,4,5-tetrazin-3-yl)propyl)-3,6-bis(dimethylamino)acridinium trifluoroacetate)], the “λmax(Abs)” value ([1]; MeCN) was 498 nm, the φ ([1]; MeCN) was 0.0075 and the “λmax(Fluor.)” value ([1]; MeCN) was 525 nm. For the same molecule, the “λmax(Abs)” value ([1]; PBS) was 500 nm, the φ ([1]; PBS) was 0.0148 and the “λmax(Fluor.)” value ([1]; PBS) was 525 nm. The “λmax(Abs)” value ([1]; Water) was 500 nm, the φ ([1]; Water) was 0.0063 and the “λmax(Fluor.)” value ([1]; Water) was 525 nm.
In the case of `Cc1cc(-c2cn([C@H]3C[C@H](O)[C@@H](CO)O3)c(=O)[nH]c2=O)c(-c2ccc3cc4ccc(N(C)C)cc4nc3c2)nn1` [PINK-VdU-ox], the “quantum yield (φF)” value [2] is reported as 3.5-19% and the “impact of VdU-PINK labeling on subsequent DNA synthesis / cell cycle” value [3] is reported as “did not cause cell cycle arrest”.
For `C=Cc1cn([C@H]2C[C@H](O)[C@@H](CO)O2)c2ncnc(N)c12` [VdA, 7-vinyl-7-deaza-2′-deoxyadenosine], the IC50 [4, 11] was 37 µM, the IC50 [4, 12] was 25 µM and the IC50 [5, 11] was 72 µM. The IC50 [5, 12] was 46 µM, the IC50 ([6]; Homo sapiens, MOLM-13, MOLM-13) was 3 µM and the IC50 ([6]; MOLM-13) was 2.6 µM. The IC50 ([7]; MV4-11, 24 h incubation, read-out: IC50 value (24 h)) was 32 µM, the IC50 ([7]; MV4-11, 72 h incubation, read-out: IC50 value (72 h)) was 58 µM and the IC50 ([8]; 24 h incubation, read-out: IC50 value (24 h)) was 68 µM. The IC50 ([8]; 72 h incubation, read-out: IC50 value (72 h)) was 46 µM, the “cell concentration (cell growth)” value [9] was “seem to inhibit cell growth” and the IC50 [10] was roughly 50 µM.
